# Columns and labels:
# Test in all cases: ≥ marks a high value that may be exact or a test limit, other limits are often not marked, values filed in µg/mL are converted to µM
# [1] = test system: Candida albicans ATCC 90028
# [2] = test system: Pseudomonas aeruginosa ATCC 9027
# [3] = test system: Staphylococcus aureus USA 100
# [4] = test system: Staphylococcus aureus USA 300
# [5] = test system: Cronobacter muytjensii ATCC 51329
# [6] = test system: Cronobacter sakazakii ATCC BAA-894
# [7] = test system: Cronobacter sakazakii DPC 6440
# [8] = test system: Cronobacter sakazakii DSM 4485
# [9] = test system: Escherichia coli NCIMB 11843
# [10] = test system: Klebsiella pneumoniae NCIMB 13218
# [11] = test system: Pseudomonas fluorescens NCIMB 9046
# [12] = test system: Salmonella enterica subsp. enterica serovar Typhimurium LT2
# [13] = test system: Staphylococcus aureus NCTC 8325-4
# [14] = test system: Staphylococcus aureus Newman
# [15] = test system: Staphylococcus aureus RF122
# [16] = test system: Staphylococcus aureus RN4220
# [17] = test system: Staphylococcus aureus SA113
# [18] = test system: Pseudomonas aeruginosa ATCC 27853
# [19] = test system: Bacillus subtilis
# [20] = test system: Candida albicans ATCC 2002
# [21] = test system: Escherichia coli ATCC 25922
# [22] = test system: Staphylococcus aureus ATCC 2592
# [23] = test system: Escherichia coli
# [24] = test system: Listeria innocua
# [25] = test system: Micrococcus luteus A270
MIC [3] [µM],MIC [5] [µM],MIC [6] [µM],MIC [7] [µM],MIC [8] [µM],MIC [9] [µM],MIC [10] [µM],MIC [11] [µM],MIC [12] [µM],MIC [13] [µM],MIC [14] [µM],MIC [15] [µM],MIC [16] [µM],MIC [17] [µM],SMILES,other results
25,,,,,,,,,,,,,,NC(=O)[C@H](Cc1c[nH]c2ccccc12)NC(=O)[C@H](Cc1c[nH]c2ccccc12)NC(=O)[C@H](Cc1c[nH]c2ccccc12)NC(=O)[C@H](CCCN=C(N)N)NC(=O)[C@H](CCCN=C(N)N)NC(=O)[C@@H](N)CCCN=C(N)N [RRRWWW],MIC [1]: ≥ 100 µM; MIC [2]: 50 µM; MIC [4]: 25 µM
,≥ 2500,≥ 2500,≥ 625,≥ 2500,≥ 1250,≥ 1250,≥ 1250,≥ 1250,≥ 1250,≥ 1250,≥ 1250,≥ 1250,≥ 1250,CC[C@H](C)[C@H](N)C(=O)N[C@@H](CCCCN)C(=O)N[C@@H](C)C(=O)N[C@@H](CCC(N)=O)C(=O)NCC(=O)N[C@@H](CC(C)C)C(=O)N1CCC[C@H]1C(=O)N[C@@H](CCC(N)=O)C(=O)N[C@@H](CCC(=O)O)C(=O)O [IKAQGLPQE],
12.5,,,,,,,,,,,,,,NCCCC[C@H](NC(=O)[C@H](Cc1c[nH]c2ccccc12)NC(=O)[C@H](CCCCN)NC(=O)[C@H](Cc1c[nH]c2ccccc12)NC(=O)[C@H](Cc1c[nH]c2ccccc12)NC(=O)[C@H](CCCCN)NC(=O)[C@H](Cc1c[nH]c2ccccc12)NC(=O)[C@@H](N)CCCCN)C(N)=O [KWKWWKWK],MIC [1]: ≥ 100 µM; MIC [2]: 50 µM; MIC [4]: 6.25 µM
,≥ 2500,≥ 2500,≥ 1250,≥ 1250,≥ 2500,≥ 2500,≥ 1250,≥ 2500,≥ 1250,≥ 1250,≥ 1250,≥ 1250,≥ 1250,CC(C)C[C@H](NC(=O)[C@H](CC(C)C)NC(=O)[C@H](CC(N)=O)NC(=O)[C@H](C)NC(=O)[C@H](CC(N)=O)NC(=O)[C@H](CC(C)C)NC(=O)[C@@H](N)C(C)C)C(=O)N[C@@H](CCCN=C(N)N)C(=O)O [VLNANLLR],MIC [18]: 32 µM
,,,,,,,,,,,,,,CC[C@H](C)[C@H](NC(=O)[C@H](C)NC(=O)[C@H](CS)NC(=O)[C@@H](NC(=O)[C@@H](NC(=O)[C@@H](NC(=O)CNC(=O)[C@@H](NC(=O)[C@@H](NC(=O)[C@@H](NC(=O)[C@H](C)NC(=O)[C@H](Cc1ccccc1)NC(=O)[C@H](CC(C)C)NC(=O)[C@H](CCCN=C(N)N)NC(=O)[C@H](CCCN=C(N)N)NC(=O)[C@H](CC(C)C)NC(=O)CNC(=O)CNC(=O)[C@@H](NC(=O)[C@@H](N)Cc1ccccc1)[C@@H](C)CC)[C@@H](C)O)C(C)C)C(C)C)[C@@H](C)O)C(C)C)C(C)C)C(=O)N[C@@H](CC(N)=O)C(=O)N[C@@H](CCCCN)C(=O)N[C@@H](CC(C)C)C(=O)NCC(=O)NCC(=O)NCC(=O)O [FIGGLRRLFATVVGTVVCAINKLGGG],MIC [19]: ≥ 38.2 µM; MIC [20]: 4.77 µM; MIC [21]: 4.77 µM; MIC [22]: 4.77 µM
≥ 100,,,,,,,,,,,,,,NCCCC[C@H](NC(=O)[C@H](CCCN=C(N)N)NC(=O)[C@@H](N)CCCCN)C(=O)N[C@@H](CCCN=C(N)N)C(N)=O [KRKR],
,≥ 1250,≥ 625,≥ 1250,≥ 1250,≥ 1250,≥ 2500,≥ 1250,≥ 2500,≥ 2500,≥ 2500,≥ 625,≥ 2500,≥ 2500,CC[C@H](C)[C@H](N)C(=O)N[C@@H](CCCN=C(N)N)C(=O)N[C@@H](Cc1cnc[nH]1)C(=O)N[C@@H](CCC(N)=O)C(=O)NCC(=O)N[C@@H](CC(C)C)C(=O)N1CCC[C@H]1C(=O)N[C@@H](CCC(N)=O)C(=O)N[C@@H](CCC(=O)O)C(=O)O [IRHQGLPQE],
,≥ 1250,≥ 1250,≥ 1250,≥ 1250,≥ 2500,≥ 1250,≥ 1250,≥ 2500,≥ 1250,≥ 1250,≥ 1250,≥ 1250,≥ 1250,CC(C)C[C@H](NC(=O)[C@H](CC(C)C)NC(=O)[C@H](CC(N)=O)NC(=O)[C@H](CCC(=O)O)NC(=O)[C@H](CC(N)=O)NC(=O)[C@H](CC(C)C)NC(=O)[C@@H](N)C(C)C)C(=O)N[C@@H](Cc1cnc[nH]1)C(=O)O [VLNENLLH],MIC [18]: 32 µM
,,,,,,,,,,,,,,CC(C)C[C@H](NC(=O)[C@H](CC(C)C)NC(=O)[C@H](CO)NC(=O)[C@H](Cc1cnc[nH]1)NC(=O)[C@H](CO)NC(=O)[C@H](CC(C)C)NC(=O)[C@H](CC(C)C)NC(=O)[C@H](CCCCN)NC(=O)[C@H](Cc1ccccc1)NC(=O)[C@H](CC(N)=O)NC(=O)[C@@H](N)C(C)C)C(=O)O [VNFKLLSHSLL],MIC [23]: 98 µM; MIC [24]: 24 µM; MIC [25]: 24 µM
,≥ 1250,≥ 2500,≥ 312,≥ 2500,≥ 1250,≥ 1250,≥ 2500,≥ 1250,≥ 1250,≥ 1250,≥ 625,≥ 1250,≥ 1250,CC[C@H](C)[C@H](N)C(=O)N[C@@H](CCCCN)C(=O)N[C@@H](Cc1cnc[nH]1)C(=O)N[C@@H](CCCN=C(N)N)C(=O)NCC(=O)N[C@@H](CC(C)C)C(=O)N1CCC[C@H]1C(=O)N[C@@H](CCC(N)=O)C(=O)N[C@@H](CCC(=O)O)C(=O)O [IKHRGLPQE],
,,,,,,,,,,,,,,CC(C)C[C@H](NC(=O)CNC(=O)[C@H](Cc1ccccc1)NC(=O)[C@H](CC(C)C)NC(=O)[C@H](CCCN=C(N)N)NC(=O)[C@H](CC(C)C)NC(=O)[C@H](Cc1c[nH]c2ccccc12)NC(=O)CNC(=O)CNC(=O)[C@H](CO)NC(=O)[C@H](CCCCN)NC(=O)[C@H](CC(C)C)NC(=O)[C@H](C)NC(=O)[C@@H](N)CC(C)C)C(=O)N[C@@H](CCCCN)C(=O)N[C@@H](CC(=O)O)C(=O)N[C@@H](CCCCN)C(=O)N[C@@H](CCCCN)C(=O)N[C@@H](Cc1cnc[nH]1)C(N)=O [LALKSGGWLRLFGLKDKKH],MIC [20]: ≥ 35 µM; MIC [21]: 35 µM; MIC [2]: 9 µM; MIC [22]: 17 µM
≥ 100,,,,,,,,,,,,,,NC(=O)[C@H](CCCN=C(N)N)NC(=O)[C@H](Cc1cnc[nH]1)NC(=O)[C@H](CCCN=C(N)N)NC(=O)[C@@H](N)Cc1cnc[nH]1 [HRHR],
,,,,,,,,,,,,,,CC[C@H](C)[C@H](NC(=O)CNC(=O)[C@H](Cc1c[nH]c2ccccc12)NC(=O)[C@H](C)NC(=O)[C@H](CCCCN)NC(=O)[C@H](C)N)C(=O)NCC(=O)NCC(=O)N[C@@H](Cc1cnc[nH]1)C(=O)N[C@H](C(=O)N[C@H](C(=O)NCC(=O)N[C@@H](CCC(N)=O)C(=O)N[C@H](C(=O)N[C@H](C(=O)NCC(=O)N[C@H](C(=O)N[C@@H](CCCN=C(N)N)C(=O)N[C@H](C(=O)N[C@@H](CCCN=C(N)N)C(=O)NCC(=O)N[C@@H](CC(C)C)C(=O)N[C@@H](CS)C(=O)NCC(=O)N[C@@H](CC(N)=O)C(=O)N[C@H](C(=O)O)C(C)C)[C@@H](C)CC)C(C)C)C(C)C)[C@@H](C)CC)[C@@H](C)CC)C(C)C [AKAWGIGGHVIGQIVGVRIRGLCGNV],MIC [20]: 19 µM; MIC [21]: 9.5 µM; MIC [22]: 4.79 µM

# — DBAASP
